Patent US10316049B2, “Tank-binding kinase inhibitor compounds” (Gilead Sciences, Inc., priority 2015, dated 2019)

Legend:
[1] = molecular target: T1, TBK1 (Homo sapiens, UniProt Q9UHD2); test: TR-FRET enzymatic activity assay, TBK1; type: biochemical; also: full length recombinant TBK1 at 2.5 nM
T1 construct: TBK1 and IKKε were expressed and purified as full length recombinant proteins; made in house
T1 sequence (Q9UHD2 1-729): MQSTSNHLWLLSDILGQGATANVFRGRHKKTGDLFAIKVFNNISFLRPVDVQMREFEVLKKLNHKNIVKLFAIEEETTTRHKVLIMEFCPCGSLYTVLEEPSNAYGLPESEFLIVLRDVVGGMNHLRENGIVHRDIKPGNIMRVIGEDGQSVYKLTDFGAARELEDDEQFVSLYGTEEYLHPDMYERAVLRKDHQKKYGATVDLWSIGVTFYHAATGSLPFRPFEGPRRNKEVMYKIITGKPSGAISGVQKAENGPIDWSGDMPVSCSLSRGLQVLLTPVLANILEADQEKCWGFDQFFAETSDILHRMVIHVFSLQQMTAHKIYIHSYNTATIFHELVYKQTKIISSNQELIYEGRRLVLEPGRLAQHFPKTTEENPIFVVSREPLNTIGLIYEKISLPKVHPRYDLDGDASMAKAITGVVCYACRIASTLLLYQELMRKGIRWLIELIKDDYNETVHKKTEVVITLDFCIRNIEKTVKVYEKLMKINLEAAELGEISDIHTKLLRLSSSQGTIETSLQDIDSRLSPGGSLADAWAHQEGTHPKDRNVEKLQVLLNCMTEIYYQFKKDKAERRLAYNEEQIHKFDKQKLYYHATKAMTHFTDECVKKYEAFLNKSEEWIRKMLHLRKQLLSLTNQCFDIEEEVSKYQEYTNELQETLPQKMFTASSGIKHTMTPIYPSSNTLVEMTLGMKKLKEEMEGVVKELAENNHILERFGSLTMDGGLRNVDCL
Outline: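 Full-length recombinant enzymes phosphorylated a biotinylated Ser/Thr peptide for 240 min at 25 °C, stopped with EDTA. Phosphopeptide detected by TR-FRET (streptavidin XL665, Eu-cryptate anti-phospho antibody). IC50 from four-parameter fits normalized to 1 μM staurosporine and DMSO controls, as geometric means of at least four determinations.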

[2] = molecular target: T2, IKKε (Homo sapiens, UniProt Q14164); test: TR-FRET enzymatic activity assay, IKKε; type: biochemical; details: read-out: IKKϵ IC50; also: full length recombinant IKKε at 0.3 nM
T2 construct: TBK1 and IKKε were expressed and purified as full length recombinant proteins; made in house
T2 sequence (Q14164 1-716): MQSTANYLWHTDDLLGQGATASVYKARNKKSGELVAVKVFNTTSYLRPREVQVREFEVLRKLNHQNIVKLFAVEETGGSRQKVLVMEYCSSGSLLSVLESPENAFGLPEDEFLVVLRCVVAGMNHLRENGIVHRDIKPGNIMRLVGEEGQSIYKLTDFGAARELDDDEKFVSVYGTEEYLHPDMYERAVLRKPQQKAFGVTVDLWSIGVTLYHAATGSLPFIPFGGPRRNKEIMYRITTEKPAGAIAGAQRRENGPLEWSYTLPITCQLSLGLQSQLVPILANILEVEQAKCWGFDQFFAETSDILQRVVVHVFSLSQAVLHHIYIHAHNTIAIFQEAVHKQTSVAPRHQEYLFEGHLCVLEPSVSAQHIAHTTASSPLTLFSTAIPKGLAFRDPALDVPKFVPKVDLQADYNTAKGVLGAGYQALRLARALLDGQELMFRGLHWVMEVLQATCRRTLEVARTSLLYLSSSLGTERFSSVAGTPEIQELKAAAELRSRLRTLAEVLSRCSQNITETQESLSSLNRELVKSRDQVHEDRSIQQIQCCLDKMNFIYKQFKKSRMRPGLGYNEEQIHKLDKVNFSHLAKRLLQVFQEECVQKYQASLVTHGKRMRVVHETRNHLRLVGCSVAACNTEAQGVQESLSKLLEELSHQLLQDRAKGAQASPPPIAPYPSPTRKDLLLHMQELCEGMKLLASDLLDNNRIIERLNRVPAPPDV
Outline: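 Full-length recombinant IKKε phosphorylated a biotinylated Ser/Thr peptide for 240 min at 25 °C; EDTA stop. Phospho-peptide detected by TR-FRET with streptavidin-XL665 (125 nM) and Eu-cryptate anti-phospho antibody. Normalised to staurosporine and DMSO controls; IC50 from four-parameter fit, geometric mean of ≥4 runs.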

**Q.** With `N#Cc1cc(-c2ccnc(NC(=O)[C@@H]3C[C@H]3CO)c2)ccc1OC1CCOCC1` (relative stereo) [Example 42, (1,2-trans)-N-(4-(3-cyano-4-((tetrahydro-2H-pyran-4-yl)oxy)phenyl)pyridin-2-yl)-2-(hydroxymethyl)cyclopropane-1-carboxamide] as the molecule, how does the IC50 [1] read?
**A.** Its IC50 is 62.1 nM.

**Q.** What about the IC50 [2] of the same molecule?
**A.** Its IC50 is 48.2 nM.

**Q.** How did the IC50 [1] turn out when `CC(=O)NC1C2CC1C2C(=O)Nc1cc(-c2ccc(OC3CCOCC3)c(C#N)c2)ccn1` (stereo not drawn) [Example 55, 4-acetamido-N-(4-(3-cyano-4-((tetrahydro-2H-pyran-4-yl)oxy)phenyl)pyridin-2-yl)bicyclo[1.1.1]pentane-2-carboxamide] was run?
**A.** The IC50 was > 1000 nM.

**Q.** What about the IC50 [2] of the same molecule?
**A.** Its IC50 is > 1000 nM.

**Q.** With `N#Cc1cc(-c2ccnc(NC(=O)C3CCCCC3)c2)ccc1OC1CCOCC1` [Example 1, N-(4-(3-cyano-4-((tetrahydro-2H-pyran-4-yl)oxy)phenyl)pyridin-2-yl)cyclohexanecarboxamide] as the molecule, how does the IC50 [1] read?
**A.** Its IC50 is 755 nM.

**Q.** And the IC50 [2]?
**A.** Its IC50 is 331 nM.

**Q.** `N#Cc1cc(-c2ccnc(NC(=O)C3CC3C(F)(F)F)c2)ccc1O[C@H]1CCN(C(=O)CO)C[C@H]1F` (stereo partly drawn) [Example 66, N-(4-(3-Cyano-4-(((3R,4S)-3-fluoro-1-(2-hydroxyacetyl)piperidin-4-yl)oxy)phenyl)pyridin-2-yl)-2-(trifluoromethyl)cyclopropane-1-carboxamide] was tested. Which IC50 [1] did it give?
**A.** Its IC50 is 28.3 nM.

**Q.** And the IC50 [2]?
**A.** The IC50 was 108 nM.

**Q.** Which results are given for `N#Cc1cc(-c2ccnc(NC(=O)[C@@H]3C[C@H]3c3ccc(C4CC4)nc3)c2)ccc1O[C@H]1CCN(C(=O)CO)CC1(F)F` [Example 115, (1R,2R)—N-(4-(3-cyano-4-(((S)-3,3-difluoro-1-(2-hydroxyacetyl)piperidin-4-yl)oxy)phenyl)pyridin-2-yl)-2-(6-cyclopropylpyridin-3-yl)cyclopropane-1-carboxamide]?
**A.** IC50 [1]: 8.1 nM; IC50 [2]: 7.1 nM

**Q.** What does the source list for `N#Cc1cc(-c2cc(NC(=O)C3CC3)ncn2)ccc1O[C@H]1CCN(C(=O)c2nnc[nH]2)C[C@H]1F` [Example 28, N-(6-(3-cyano-4-(((3R,4S)-3-fluoro-1-(4H-1,2,4-triazole-3-carbonyl)piperidin-4-yl)oxy)phenyl)pyrimidin-4-yl)cyclopropanecarboxamide]?
**A.** IC50 [1]: 8 nM; IC50 [2]: 12.4 nM

**Q.** `Cn1cnc(C2CC2C(=O)Nc2cc(-c3ccc(O[C@H]4CCN(C(=O)CO)C[C@H]4F)c(C#N)c3)ccn2)n1` (stereo partly drawn) [Example 145, N-(4-(3-Cyano-4-(((3R,4S)-3-fluoro-1-(2-hydroxyacetyl)piperidin-4-yl)oxy)phenyl)pyridin-2-yl)-2-(1-methyl-1H-1,2,4-triazol-3-yl)cyclopropane-1-carboxamide] was tested. Which IC50 [1] did it give?
**A.** Its IC50 is > 1000 nM.

**Q.** And the IC50 [2]?
**A.** The IC50 was > 1000 nM.

**Q.** For `N#Cc1cc(-c2ccnc(NC(=O)C3C[C@@H]3F)c2)ccc1O[C@H]1CCN(C(=O)CO)C[C@H]1F` (stereo partly drawn) [Example 57, (1,2-trans)-N-(4-(3-cyano-4-(((3R,4S)-3-fluoro-1-(2-hydroxyacetyl)piperidin-4-yl)oxy)phenyl)pyridin-2-yl)-2-fluorocyclopropane-1-carboxamide], which IC50 [1] is on record?
**A.** Its IC50 is 17 nM.

**Q.** What about the IC50 [2] of the same molecule?
**A.** The IC50 was 26.2 nM.

**Q.** How did the IC50 [1] turn out when `N#Cc1cc(-c2ccnc(NC(=O)C3(CF)CC3)c2)ccc1OC1CCOCC1` [Example 49, N-(4-(3-cyano-4-((tetrahydro-2H-pyran-4-yl)oxy)phenyl)pyridin-2-yl)-1-(fluoromethyl)cyclopropane-1-carboxamide] was run?
**A.** The IC50 was > 1000 nM.

**Q.** And the IC50 [2]?
**A.** The IC50 was > 1000 nM.

**Q.** Which IC50 [1] does the source give for `N#Cc1cc(-c2ccnc(NC(=O)[C@@H]3C[C@H]3C(=O)NCCO)c2)ccc1OC1CCOCC1` (relative stereo) [Example 46, (1,2-trans)-N1-(4-(3-cyano-4-((tetrahydro-2H-pyran-4-yl)oxy)phenyl)pyridin-2-yl)-N2-(2-hydroxyethyl)cyclopropane-1,2-dicarboxamide] here?
**A.** The IC50 was 302 nM.

**Q.** What about the IC50 [2] of the same molecule?
**A.** The IC50 was 429 nM.

**Q.** What does the source list for `N#Cc1cc(-c2ccnc(NC(=O)C3CC3)c2)ccc1N1CCCC1` [Example 5, N-(4-(3-cyano-4-(pyrrolidin-1-yl)phenyl)pyridin-2-yl)cyclopropanecarboxamide]?
**A.** IC50 [1]: 13.9 nM; IC50 [2]: 68.2 nM

**Q.** What does the source list for `N#Cc1cc(-c2ccnc(NC(=O)[C@@H]3C[C@H]3C3OCCO3)c2)ccc1OC1CCOCC1` (relative stereo) [Example 44, (1,2-trans)-N-(4-(3-cyano-4-((tetrahydro-2H-pyran-4-yl)oxy)phenyl)pyridin-2-yl)-2-(1,3-dioxolan-2-yl)cyclopropane-1-carboxamide]?
**A.** IC50 [1]: 33.3 nM; IC50 [2]: 192 nM

**Q.** How did the IC50 [1] turn out when `N#Cc1cc(-c2cc(NC(=O)C3CC3)ncn2)ccc1O[C@H]1CCN(C(=O)c2cnco2)C[C@H]1F` [Example 33, N-(6-(3-cyano-4-(((3R,4S)-3-fluoro-1-(oxazole-5-carbonyl)piperidin-4-yl)oxy)phenyl)pyrimidin-4-yl)cyclopropanecarboxamide] was run?
**A.** Its IC50 is 47.6 nM.

**Q.** What about the IC50 [2] of the same molecule?
**A.** Its IC50 is 167 nM.

**Q.** What does the source list for `N#Cc1cc(-c2ccnc(NC(=O)C3CC3C#N)c2)ccc1O[C@H]1CCN(C(=O)CO)C[C@H]1F` (stereo partly drawn) [Example 67, 2-Cyano-N-(4-(3-cyano-4-(((3R,4S)-3-fluoro-1-(2-hydroxyacetyl)piperidin-4-yl)oxy)phenyl)pyridin-2-yl)cyclopropane-1-carboxamide]?
**A.** IC50 [1]: 26.1 nM; IC50 [2]: 68.4 nM

**Q.** Which IC50 [1] does the source give for `CC(Oc1ccc(-c2cc(NC(=O)C3CC3)ncn2)cc1C#N)C(F)(F)F` (stereo not drawn) [Example 106, N-(6-(3-cyano-4-((1,1,1-trifluoropropan-2-yl)oxy)phenyl)pyrimidin-4-yl)cyclopropanecarboxamide] here?
**A.** Its IC50 is 301 nM.

**Q.** And the IC50 [2]?
**A.** Its IC50 is > 1000 nM.

**Q.** `N#Cc1cc(-c2ccnc(NC(=O)[C@H]3C[C@H]3F)c2)ccc1N1CCCC1` [Example 64, (1R,2R)—N-(4-(3-cyano-4-(pyrrolidin-1-yl)phenyl)pyridin-2-yl)-2-fluorocyclopropane-1-carboxamide] was tested. Which IC50 [1] did it give?
**A.** Its IC50 is 85.3 nM.

**Q.** And the IC50 [2]?
**A.** Its IC50 is 578 nM.

**Q.** Which results are given for `N#Cc1cc(-c2ccnc(NC(=O)[C@H]3C[C@H]3F)c2)ccc1N1CCC(O)CC1` [Example 65, (1R,2R)—N-(4-(3-cyano-4-(4-hydroxypiperidin-1-yl)phenyl)pyridin-2-yl)-2-fluorocyclopropane-1-carboxamide]?
**A.** IC50 [1]: 470 nM; IC50 [2]: > 1000 nM

**Q.** Which IC50 [1] does the source give for `Cn1cc([C@@H]2C[C@H]2C(=O)Nc2cc(-c3ccc(O[C@H]4CCN(C(=O)CO)C[C@H]4F)c(C#N)c3)ccn2)cn1` [Example 90, (1,2-trans)-N-(4-(3-cyano-4-(((3R,4S)-3-fluoro-1-(2-hydroxyacetyl)piperidin-4-yl)oxy)phenyl)pyridin-2-yl)-2-(1-methyl-1H-pyrazol-4-yl)cyclopropane-1-carboxamide] here?
**A.** Its IC50 is 5.6 nM.

**Q.** And the IC50 [2]?
**A.** The IC50 was 9.5 nM.

**Q.** For `Cn1ccc([C@H]2C[C@@H]2C(=O)Nc2cc(-c3ccc(O[C@H]4CCN(C(=O)CO)CC4(F)F)c(C#N)c3)ccn2)n1` [Example 103, (1S,2S)—N-(4-(3-cyano-4-(((S)-3,3-difluoro-1-(2-hydroxyacetyl)piperidin-4-yl)oxy)phenyl)pyridin-2-yl)-2-(1-methyl-1H-pyrazol-3-yl)cyclopropane-1-carboxamide], which IC50 [1] is on record?
**A.** Its IC50 is 5.7 nM.

**Q.** And the IC50 [2]?
**A.** The IC50 was 14.3 nM.

**Q.** How did the IC50 [1] turn out when `N#Cc1cc(-c2ccnc(NC(=O)C3(O)CC3)c2)ccc1OC1CCOCC1` [Example 36, N-(4-(3-cyano-4-((tetrahydro-2H-pyran-4-yl)oxy)phenyl)pyridin-2-yl)-1-hydroxycyclopropanecarboxamide] was run?
**A.** Its IC50 is > 1000 nM.

**Q.** What about the IC50 [2] of the same molecule?
**A.** The IC50 was > 1000 nM.

**Q.** With `N#CCC(=O)N1CC[C@H](Oc2ccc(-c3ccnc(NC(=O)C4CC4)c3)cc2C#N)[C@H](F)C1` [Example 12, N-(4-(3-cyano-4-(((3R,4S)-1-(2-cyanoacetyl)-3-fluoropiperidin-4-yl)oxy)phenyl)pyridin-2-yl)cyclopropanecarboxamide] as the molecule, how does the IC50 [1] read?
**A.** Its IC50 is 37.3 nM.

**Q.** What about the IC50 [2] of the same molecule?
**A.** Its IC50 is 121 nM.
